# According to patent US5972933A, “Method of treating microbial infections” (Ed. Geistlich Sohne AG Fur Chemische Industrie, priority 1998, dated 1999):
# Entries after “also recorded” stand apart in the source; their conditions may differ. Where two headings read alike, the source gives them in different places.
# Tests used:
# Enterococcus faecalis = assay: Taurolidine in vitro susceptibility, E. faecalis (Example 4); type: cell-based
# Source text: (§1) The in vitro susceptibility to taurolidine of a panel of clinical isolates and reference strains of Enterococcus faecium (n=20,7 strains vancomycin resistant) and Enterococcus faecalis (n-53,5 strains vancomycin resistant) has been examined. […] In all cases, the Minimum Bacteriocidal Concentration (MBC) of taurolidine was within 2 dilutions of the corresponding value for MIC confirming a bactericidal mode of action. In vitro resistance to taurolidine was not observed.
# Enterococcus faecium = assay: Taurolidine in vitro susceptibility, E. faecium (Example 4); type: cell-based
# Source text: as §1
# E. faecium = assay: Two percent taurolidine solution tested against bacteria, E. faecium (Example 5); type: cell-based; conditions: Enterococcus faecium, 48 h, 5×10^4 CFU/well, one line per sample (strain)
# Description: (§2) Two percent taurolidine solution was tested against various bacteria at 5×10^4 CFU/well, according to Manual of Clinical Microbiology, 6th edition, P. R. Murray et al., pp. 1334-1335.
# bacteria and fungi [1] = assay: Antimicrobial activity (general statements); type: cell-based
# E. faecalis = assay: Two percent taurolidine solution tested against bacteria, E. faecalis (Example 5); type: cell-based; conditions: Enterococcus faecalis, 24 h, 5×10^4 CFU/well, one line per sample (strain)
# Description: as §2
# Staph. app. = assay: Two percent taurolidine solution tested against bacteria, Staph. app. (Example 5); type: cell-based; conditions: 5×10^4 CFU/well
# Description: as §2
# [2] = cited from earlier work
# bacteria and fungi [3] = conditions: known antimicrobial substances; cited from earlier work
# Enterococci = assay: Taurolidine in vitro susceptibility, Enterococci overall (Example 4); type: cell-based, Enterococcus faecium and Enterococcus faecalis
# Source text: as §1
# [4] = test system: Methicillin-Resistant Staphylococcus aureus (MRSA); assay: Taurolidine MIC by broth microdilution, methicillin-resistant S. aureus (EMRSA 15); type: cell-based; conditions: compared to NCTC 6571 or previous studies with fully sensitive strains
# Description: All test strains were clinical isolates recovered from patients attending Hammersmith Hospital, London. Strains of Staphylococcus aureus (epidemic methicillin-resistant strain 15 (EMRSA 15) and vancomycin-resistant Enterococcus faecalis were broadly unselected isolates from local culture collections. However, strain selection was conducted so as to ensure that isolates were not consecutive isolates from individual patients.
# Taurolidine MICs were performed using a sample of authenticated anhydrous micronised taurolidine batch number E/40522/4 (Geistlich Pharma AG, Wolhusen, Switzerland).
# An aqueous stock solution of taurolidine was prepared to contain 2 g/100 ml taurolidine in water. This preparation was solubilized and sterilized by heating to 121° C. (15 psi) for 15 minutes.
# Using this stock solution, serial doubling dilution of taurolidine were prepared in Unipath (Oxoid) Nutrient Broth Number 2 using 50 μl volumes in sterile round bottom microdilution trays. To these dilutions was added an equal volume of drug-free broth containing a suspension of the test organism to give a final inoculumn density of approximately 10^3 cfu. Inocula were prepared from overnight drug-free broth cultures of each test organism in Unipath (Oxoid) Nutrient Broth Number 2.
# Final test concentrations of taurolidine were as follows:
# All tests were incubated at 37 C for 18 hours. […]
# TNF production = TNF production in human blood / antibiotic-treated cultures; type: cell-based
# Source text: Taurolidine and/or Taurultam prevent over-production of cytokines in the patient by monocytes of the blood.
smiles,measurement,setting,value
O=S1(=O)CCN(CN2CCS(=O)(=O)NC2)CN1 [Taurolidine],MIC,"Enterococcus faecalis; E. faecalis strains, read-out: MIC range",125 to 500 µg/mL
same,MBC,"Enterococcus faecalis; E. faecalis, VAN R strains, read-out: MBC, Avg.",500 µg/mL
same,MBC,"Enterococcus faecalis; E. faecalis, VAN R strains, read-out: MBC, Max.",750 µg/mL
same,MBC,"Enterococcus faecalis; E. faecalis, VAN R strains, read-out: MBC, Mean",500 µg/mL
same,MBC,"Enterococcus faecalis; E. faecalis, VAN R strains, read-out: MBC, Median",500 µg/mL
same,MBC,"Enterococcus faecalis; E. faecalis, VAN R strains, read-out: MBC, Min.",500 µg/mL
same,MBC,"Enterococcus faecalis; E. faecalis, VAN R strains, read-out: MBC, Mode",500 µg/mL
same,MIC,"Enterococcus faecalis; E. faecalis, VAN R strains, read-out: MIC, Avg.",213 µg/mL
same,MIC,"Enterococcus faecalis; E. faecalis, VAN R strains, read-out: MIC, Max.",375 µg/mL
same,MIC,"Enterococcus faecalis; E. faecalis, VAN R strains, read-out: MIC, Mean",213 µg/mL
same,MIC,"Enterococcus faecalis; E. faecalis, VAN R strains, read-out: MIC, Median",250 µg/mL
same,MIC,"Enterococcus faecalis; E. faecalis, VAN R strains, read-out: MIC, Min.",125 µg/mL
same,MIC,"Enterococcus faecalis; E. faecalis, VAN R strains, read-out: MIC, Mode",250 µg/mL
same,MBC,"Enterococcus faecalis; E. faecalis, VAN S strains, read-out: MBC, Avg.",566 µg/mL
same,MBC,"Enterococcus faecalis; E. faecalis, VAN S strains, read-out: MBC, Max.",750 µg/mL
same,MBC,"Enterococcus faecalis; E. faecalis, VAN S strains, read-out: MBC, Mean",566 µg/mL
same,MBC,"Enterococcus faecalis; E. faecalis, VAN S strains, read-out: MBC, Median",500 µg/mL
same,MBC,"Enterococcus faecalis; E. faecalis, VAN S strains, read-out: MBC, Min.",375 µg/mL
same,MBC,"Enterococcus faecalis; E. faecalis, VAN S strains, read-out: MBC, Mode",500 µg/mL
same,MIC,"Enterococcus faecalis; E. faecalis, VAN S strains, read-out: MIC, Avg.",289 µg/mL
same,MIC,"Enterococcus faecalis; E. faecalis, VAN S strains, read-out: MIC, Max.",500 µg/mL
same,MIC,"Enterococcus faecalis; E. faecalis, VAN S strains, read-out: MIC, Mean",289 µg/mL
same,MIC,"Enterococcus faecalis; E. faecalis, VAN S strains, read-out: MIC, Median",250 µg/mL
same,MIC,"Enterococcus faecalis; E. faecalis, VAN S strains, read-out: MIC, Min.",190 µg/mL
same,MIC,"Enterococcus faecalis; E. faecalis, VAN S strains, read-out: MIC, Mode",250 µg/mL
same,MBC,"Enterococcus faecalis; E. faecalis, VAN S, Germany, read-out: MBC, (VAN S) model",750 µg/mL
same,MIC,"Enterococcus faecalis; E. faecalis, VAN S, Germany, read-out: MIC, (VAN S) model",375 µg/mL
same,MBC,"Enterococcus faecalis; E. faecalis, VAN S, Switzerland, read-out: MBC, (VAN S) model",500 µg/mL
same,MIC,"Enterococcus faecalis; E. faecalis, VAN S, Switzerland, read-out: MIC, (VAN S) model",375 µg/mL
same,MBC,"Enterococcus faecalis; E. faecalis, VAN S, UK, read-out: MBC, (VAN S) model",500 µg/mL
same,MIC,"Enterococcus faecalis; E. faecalis, VAN S, UK, read-out: MIC, (VAN S) model",250 µg/mL
same,MBC,"Enterococcus faecalis; E. faecalis, all strains, read-out: MBC, Avg.",606 µg/mL
same,MBC,"Enterococcus faecalis; E. faecalis, all strains, read-out: MBC, Max.",750 µg/mL
same,MBC,"Enterococcus faecalis; E. faecalis, all strains, read-out: MBC, Mean",606 µg/mL
same,MBC,"Enterococcus faecalis; E. faecalis, all strains, read-out: MBC, Median",500 µg/mL
same,MBC,"Enterococcus faecalis; E. faecalis, all strains, read-out: MBC, Min.",375 µg/mL
same,MBC,"Enterococcus faecalis; E. faecalis, all strains, read-out: MBC, Mode",500 µg/mL
same,MIC,"Enterococcus faecalis; E. faecalis, all strains, read-out: MIC, Avg.",310 µg/mL
same,MIC,"Enterococcus faecalis; E. faecalis, all strains, read-out: MIC, Max.",500 µg/mL
same,MIC,"Enterococcus faecalis; E. faecalis, all strains, read-out: MIC, Mean",310 µg/mL
same,MIC,"Enterococcus faecalis; E. faecalis, all strains, read-out: MIC, Median",375 µg/mL
same,MIC,"Enterococcus faecalis; E. faecalis, all strains, read-out: MIC, Min.",125 µg/mL
same,MIC,"Enterococcus faecalis; E. faecalis, all strains, read-out: MIC, Mode",375 µg/mL
same,MIC,"Enterococcus faecium; E. faecium strains, read-out: MIC range",95 to 375 µg/mL
same,MBC,"Enterococcus faecium; E. faecium, VAN R strains, read-out: MBC, Avg.",446 µg/mL
same,MBC,"Enterococcus faecium; E. faecium, VAN R strains, read-out: MBC, Max.",500 µg/mL
same,MBC,"Enterococcus faecium; E. faecium, VAN R strains, read-out: MBC, Mean",446 µg/mL
same,MBC,"Enterococcus faecium; E. faecium, VAN R strains, read-out: MBC, Median",500 µg/mL
same,MBC,"Enterococcus faecium; E. faecium, VAN R strains, read-out: MBC, Min.",375 µg/mL
same,MBC,"Enterococcus faecium; E. faecium, VAN R strains, read-out: MBC, Mode",500 µg/mL
same,MIC,"Enterococcus faecium; E. faecium, VAN R strains, read-out: MIC, Avg.",161 µg/mL
same,MIC,"Enterococcus faecium; E. faecium, VAN R strains, read-out: MIC, Max.",250 µg/mL
same,MIC,"Enterococcus faecium; E. faecium, VAN R strains, read-out: MIC, Mean",161 µg/mL
same,MIC,"Enterococcus faecium; E. faecium, VAN R strains, read-out: MIC, Median",95 µg/mL
same,MIC,"Enterococcus faecium; E. faecium, VAN R strains, read-out: MIC, Min.",95 µg/mL
same,MIC,"Enterococcus faecium; E. faecium, VAN R strains, read-out: MIC, Mode",95 µg/mL
same,MBC,"Enterococcus faecium; E. faecium, VAN S strains, read-out: MBC, Avg.",666 µg/mL
same,MBC,"Enterococcus faecium; E. faecium, VAN S strains, read-out: MBC, Max.",1000 µg/mL
same,MBC,"Enterococcus faecium; E. faecium, VAN S strains, read-out: MBC, Mean",666 µg/mL
same,MBC,"Enterococcus faecium; E. faecium, VAN S strains, read-out: MBC, Median",750 µg/mL
same,MBC,"Enterococcus faecium; E. faecium, VAN S strains, read-out: MBC, Min.",500 µg/mL
same,MBC,"Enterococcus faecium; E. faecium, VAN S strains, read-out: MBC, Mode",750 µg/mL
same,MIC,"Enterococcus faecium; E. faecium, VAN S strains, read-out: MIC, Avg.",323 µg/mL
same,MIC,"Enterococcus faecium; E. faecium, VAN S strains, read-out: MIC, Max.",375 µg/mL
same,MIC,"Enterococcus faecium; E. faecium, VAN S strains, read-out: MIC, Mean",323 µg/mL
same,MIC,"Enterococcus faecium; E. faecium, VAN S strains, read-out: MIC, Median",375 µg/mL
same,MIC,"Enterococcus faecium; E. faecium, VAN S strains, read-out: MIC, Min.",125 µg/mL
same,MIC,"Enterococcus faecium; E. faecium, VAN S strains, read-out: MIC, Mode",375 µg/mL
same,MBC,"Enterococcus faecium; E. faecium, all strains, read-out: MBC, Avg.",581 µg/mL
same,MBC,"Enterococcus faecium; E. faecium, all strains, read-out: MBC, Max.",1000 µg/mL
same,MBC,"Enterococcus faecium; E. faecium, all strains, read-out: MBC, Mean",581 µg/mL
same,MBC,"Enterococcus faecium; E. faecium, all strains, read-out: MBC, Median",500 µg/mL
same,MBC,"Enterococcus faecium; E. faecium, all strains, read-out: MBC, Min.",375 µg/mL
same,MBC,"Enterococcus faecium; E. faecium, all strains, read-out: MBC, Mode",500 µg/mL
same,MIC,"Enterococcus faecium; E. faecium, all strains, read-out: MIC, Avg.",260 µg/mL
same,MIC,"Enterococcus faecium; E. faecium, all strains, read-out: MIC, Max.",375 µg/mL
same,MIC,"Enterococcus faecium; E. faecium, all strains, read-out: MIC, Mean",260 µg/mL
same,MIC,"Enterococcus faecium; E. faecium, all strains, read-out: MIC, Median",250 µg/mL
same,MIC,"Enterococcus faecium; E. faecium, all strains, read-out: MIC, Min.",95 µg/mL
same,MIC,"Enterococcus faecium; E. faecium, all strains, read-out: MIC, Mode",375 µg/mL
same,MIC,E. faecium,250 µg/mL
same,rate of bacterial killing,bacteria and fungi [1],kills bacteria slowly
same,resistance development,bacteria and fungi [1],Resistance has not been observed either in vivo or in vitro; also recorded: no resistance development by microbes has been observed
same,in vitro effectiveness against bacterial strains,"bacteria and fungi [1]; in vitro, including multi-resistant strains, VRE and MRSA",effective against all gram negative and gram positive bacterial strains tested to-date
same,in vitro effectiveness against antibiotic-resistant pathogens,"bacteria and fungi [1]; in vitro, pathogens resistant to methicillin and vancomycin",fully effective in vitro
same,antifungal activity,bacteria and fungi [1]; yeast-like and filamentous fungi,useful activity against most yeast-like and filamentous fungi
same,MBC,E. faecalis,500 µg/mL
same,MBC,Staph. app.; 24 h,375 µg/mL
same,MIC,"Staph. app.; 24 h, read-out: MIC 24 h",190 µg/mL
same,MIC,"Staph. app.; 48 h, read-out: MIC 48 h",250 µg/mL
same,half-life in vivo,[2],short half-life in vivo
same,antimicrobial spectrum,bacteria and fungi [3],"broad-spectrum activity against aerobic and anaerobic bacteria, mycobacteria and fungi"
same,difference in degree of susceptibility between E. faecalis and E. faecium,Enterococci,no difference in degree of susceptibility
same,In vitro resistance to taurolidine,Enterococci; E. faecium and E. faecalis,not observed
same,MBC relative to corresponding MIC,"Enterococci; all cases, bactericidal mode of action",≤ 2 dilutions
same,difference in MICs or MBCs between strains,"Enterococci; vancomycin-sensitive or vancomycin-resistant, various locations across Europe",No differences were noted
same,difference in level of susceptibility to taurolidine,[4],no difference in level of susceptibility to taurolidine
same,TNF production,TNF production; added to antibiotic-treated cultures,prevents a rise in TNF production
same,neutralization of released endotoxins,TNF production; antibiotic-treated cultures,nearly complete neutralization of released endotoxins
